The subject of one experiment is CEM-C7A cells. The experiment is described as follows: Apoptosis assay in CEM-C7A cells (viable cell count, MTS). Type of experiment: cell-based, human. The procedure:
The CEM-C7A cell line is a steroid sensitive clone of the CCRF-CEM cell line (ECACC 85112105). This is a T lymphoblastoid cell line with functional endogenous GR.
Apoptosis (programmed cell death) is mediated by a protein called Bax the transcription of which is primarily controlled by the GR in a ligand dependant manner. To measure the ability of a GR ligand to effect apoptosis a suitable cell line was incubated with ligand and a viable cell count was performed after three days.
CEM-C7A cells were plated out on to a 96well plate at 5×10^5/well. The steroids of FIGS. 1 and 2A were added immediately to generate a final concentration of 100 nM. After a three day incubation the live cell number in each well was assessed using Celltiter 96 Aqueous Non-Radioactive Cell Proliferation Assay (Promega). This assay is a calorimetric method for determining the number of viable cells in proliferation or chemosensitivity assays.
Briefly, the assay is composed of solutions of a novel tetrazolium compound (3-(4,5-dimethylthiazol-2-yl)-5-(3-carboxymethoxyphenyl)-2-(4-sulfophenyl)-2H-tetrazolium, MTS) and an electron coupling reagent (phenazine methosulfate; PMS). MTS is bioreduced by cells into a formazan product that is soluble in tissue culture medium. The absorbance of the formazan at 490 nm can be measured directly from 96 well assay plates without additional processing. The conversion of MTS into aqueous, soluble formazan is accomplished by dehydrogenase enzymes found in metabolically active cells. The quantity of formazan product as measured by the amount of 490 nm absorbance is directly proportional to the number of living cells in culture.

The next experiment concerns the target T1, glucocorticoid receptor (Homo sapiens, UniProt P04150).
T1 sequence (P04150 1-777): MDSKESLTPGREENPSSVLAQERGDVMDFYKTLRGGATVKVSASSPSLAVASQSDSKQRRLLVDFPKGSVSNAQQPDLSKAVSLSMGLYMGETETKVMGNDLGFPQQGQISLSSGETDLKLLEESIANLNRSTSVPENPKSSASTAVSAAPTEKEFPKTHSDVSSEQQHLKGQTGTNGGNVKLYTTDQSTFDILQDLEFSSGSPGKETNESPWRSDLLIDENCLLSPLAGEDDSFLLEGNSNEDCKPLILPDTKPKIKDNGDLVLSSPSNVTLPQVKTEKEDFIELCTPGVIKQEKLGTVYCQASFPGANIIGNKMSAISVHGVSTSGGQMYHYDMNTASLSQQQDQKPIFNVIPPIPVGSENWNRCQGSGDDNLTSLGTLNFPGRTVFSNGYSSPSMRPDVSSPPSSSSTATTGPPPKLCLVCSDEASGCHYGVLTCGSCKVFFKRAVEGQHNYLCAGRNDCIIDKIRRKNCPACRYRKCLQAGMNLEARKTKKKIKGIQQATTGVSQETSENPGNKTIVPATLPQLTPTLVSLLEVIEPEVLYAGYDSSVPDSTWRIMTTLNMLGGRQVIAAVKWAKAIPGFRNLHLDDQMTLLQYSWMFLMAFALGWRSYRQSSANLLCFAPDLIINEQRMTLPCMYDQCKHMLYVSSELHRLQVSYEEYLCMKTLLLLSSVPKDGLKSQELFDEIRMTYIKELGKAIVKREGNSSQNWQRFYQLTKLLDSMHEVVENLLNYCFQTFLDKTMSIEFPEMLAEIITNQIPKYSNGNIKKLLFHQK
Also on record: expressed in transfected cells; host or cells: COS 7 (African green monkey kidney, deficient in endogenous GR). As to conditions: in-vitro, other investigators; cited from earlier work.

For experiment [1] the following is noted: cited from earlier work.
For experiment [2], the target named is T2, progesterone receptor (PRB) (Homo sapiens, UniProt P06401).
T2 construct: expressed in transfected cells; host or cells: COS 7
T2 sequence (P06401 1-933): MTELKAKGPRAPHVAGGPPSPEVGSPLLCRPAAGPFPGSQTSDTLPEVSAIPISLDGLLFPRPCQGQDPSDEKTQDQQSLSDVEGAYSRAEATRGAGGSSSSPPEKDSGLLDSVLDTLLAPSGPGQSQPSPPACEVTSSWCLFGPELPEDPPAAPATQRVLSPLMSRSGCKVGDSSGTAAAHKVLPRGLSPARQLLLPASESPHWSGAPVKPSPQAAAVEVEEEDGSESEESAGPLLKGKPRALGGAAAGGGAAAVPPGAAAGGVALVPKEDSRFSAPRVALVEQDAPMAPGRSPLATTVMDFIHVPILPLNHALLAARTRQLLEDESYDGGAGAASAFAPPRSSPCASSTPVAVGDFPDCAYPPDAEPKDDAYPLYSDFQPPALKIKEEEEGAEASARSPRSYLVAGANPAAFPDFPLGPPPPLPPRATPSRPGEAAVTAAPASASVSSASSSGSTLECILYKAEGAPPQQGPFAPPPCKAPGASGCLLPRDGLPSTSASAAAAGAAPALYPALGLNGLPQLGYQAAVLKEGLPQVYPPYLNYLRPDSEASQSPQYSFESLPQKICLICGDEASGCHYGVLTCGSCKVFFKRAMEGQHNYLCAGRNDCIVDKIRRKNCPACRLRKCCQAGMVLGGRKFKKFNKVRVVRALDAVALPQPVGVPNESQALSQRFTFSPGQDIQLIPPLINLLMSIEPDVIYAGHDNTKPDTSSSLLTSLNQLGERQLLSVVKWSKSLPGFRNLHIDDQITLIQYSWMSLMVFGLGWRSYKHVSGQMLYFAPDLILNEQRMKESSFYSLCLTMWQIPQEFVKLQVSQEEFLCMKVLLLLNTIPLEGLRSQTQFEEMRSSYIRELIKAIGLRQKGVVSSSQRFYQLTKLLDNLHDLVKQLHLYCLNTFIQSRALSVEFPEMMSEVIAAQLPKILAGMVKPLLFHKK
The experiment is described as follows: Progestogen activity assay using progesterone receptor transactivation. Type of experiment: cell-based. To be noted: unpublished data, conditions not given.

The target in another experiment is T3, GR Tyr735val (Homo sapiens, UniProt P04150, Y735V).
T3 construct: expressed in transfected cells
T3 sequence (P04150 1-777 Y735V): T1 sequence (P04150 1-777) with Y735V
Nature of the experiment: Transactivation of the MMTV promoter by mutant GR Tyr735val. The format is cell-based. To be noted: 100 nM.

The target of another experiment is T4, wild-type GR (Homo sapiens, UniProt P04150).
T4 construct: expressed in transfected cells
T4 sequence (P04150 1-777): T1 sequence (P04150 1-777)
Nature of the experiment: Transactivation of the MMTV promoter by wild-type GR. Type of experiment: cell-based. To be noted: 100 nM.

A further experiment deals with T5, GR Tyr735phe (Homo sapiens, UniProt P04150, Y735F).
T5 construct: expressed in transfected cells
T5 sequence (P04150 1-777 Y735F): T1 sequence (P04150 1-777) with Y735F
The experiment is described as follows: Transactivation of the MMTV promoter by mutant GR Tyr735phe. Type of experiment: cell-based. To be noted: 100 nM.

The target in another experiment is T6, GR Tyr735ser (Homo sapiens, UniProt P04150, Y735S).
T6 construct: expressed in transfected cells
T6 sequence (P04150 1-777 Y735S): T1 sequence (P04150 1-777) with Y735S
Nature of the experiment: Transactivation of the MMTV promoter by mutant GR Tyr735ser. The format is cell-based. As to conditions: 100 nM.

Changes are numbered by the printed parent chain.

On to `C[C@@H]1C[C@H]2[C@@H]3CCC4=CC(=O)C=C[C@]4(C)[C@@]3(F)[C@@H](O)C[C@]2(C)[C@H]1C(=O)CC#N` [RU24858, reference compound], for which, in the experiment with CEM-C7A cells (CEM C7A cells), the effect on proliferation entry is reported as “impaired proliferation”. In addition, the induction of apoptosis result was “did not induce significant apoptosis” in the experiment on CEM-C7A cells (CEM C7A cells, 100 nM, three day incubation) and “does not induce apoptosis” with CEM-C7A cells (unpublished data, conditions not given). The “selectivity for transrepression over transactivation” value on glucocorticoid receptor is recorded as 2 fold. For the same compound, the desired profile in-vivo entry in experiment [1] is “failed to show the desired profile in-vivo”. Further, the “activation of the progesterone receptor” value in experiment [2] was “activating the progesterone receptor”.
Regarding `C[C@]12CCC(=O)C=C1CC[C@@H]1[C@@H]2[C@@H](O)C[C@@]2(C)[C@H]1CC[C@]2(O)C(=O)CO` [hydrocortisone], the “induction of MMTV” value is listed as 10.6 fold on GR Tyr735val, 18 fold on wild-type GR, 11 fold at GR Tyr735phe and “failed to induce the reporter” at GR Tyr735ser.

The record behind these values is patent US7763596B2, “Selective glucocorticoid receptor agonists” (The University of Manchester, priority 2000, dated 2010).
